Experimental data published in PMC7318222, “A Family of Water‐Immiscible, Dipolar Aprotic, Diamide Solvents from Succinic Acid” (Chemsuschem, 2020).

What was measured:
[1] = target: T1, PXR (Homo sapiens, UniProt O75469); assay: PXR CALUX reporter gene assay; type: cell-based; parameters: key: –: no effect observed up to the highest test concentration; settings: PC10, 24 h exposure
T1 construct: expression construct for the full-length human receptor under investigation; expressed in transfected cells; host or cells: human U2-OS cells (ATCC HTB-96), stably transfected
T1 sequence (O75469 1-434): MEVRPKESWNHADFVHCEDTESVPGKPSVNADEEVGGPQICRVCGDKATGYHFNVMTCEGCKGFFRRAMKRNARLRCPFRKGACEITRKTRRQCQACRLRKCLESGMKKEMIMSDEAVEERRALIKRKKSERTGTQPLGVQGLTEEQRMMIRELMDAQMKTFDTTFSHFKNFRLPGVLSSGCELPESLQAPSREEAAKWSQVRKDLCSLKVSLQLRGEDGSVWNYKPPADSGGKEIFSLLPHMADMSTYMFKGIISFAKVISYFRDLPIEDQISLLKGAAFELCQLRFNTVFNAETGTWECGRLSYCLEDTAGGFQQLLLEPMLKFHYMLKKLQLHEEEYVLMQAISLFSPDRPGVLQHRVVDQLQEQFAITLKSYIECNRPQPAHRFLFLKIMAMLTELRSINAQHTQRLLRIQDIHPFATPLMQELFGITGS
Source text: PXR activation leads to the induction of metabolic enzymes, resulting in enhanced metabolism of a wide range of compounds. […]
(§1) Polyarylethersulfone of 55,000 Da were obtained from INGE.BASF, Germany. The CALUX cell lines have been described previously.[1] They are based on human U2-OS cells (ATCC, HTB-96) stably transfected with an expression construct for the full-length human receptor under investigation, and a reporter construct consisting of multimerized responsive elements for the cognate receptor coupled to a minimal promoter element (TATA) and a luciferase gene. Cells were maintained as described previously,[2] using cell culture media and supplements from Fisher Scientific as described in the experimental procedures section. […]
(§2) In vitro reporter gene assays
(§3) The automated CALUX assays were carried out similarly as described earlier,[12] with some adaptations. In brief, the assay was performed in CO2 independent medium (Fisher Scientific, […]
(§4) supplement (Fisher Scientific, 11574466), 10 U/mL penicillin and 10 µg/mL streptomycin. A cell suspension in assay medium was made of 1 × 10^5cells/mL, and white 384-wells plates were seeded with 30 µl cell suspension/well. After 24 h, exposure medium was prepared. A dilution series in 0.5log unit increments of each test compound (in DMSO) was added to a 96-wells plate containing assay medium (2% v/v). Of this exposure mixture, 30 µl was added to the assay plates containing the CALUX cells, resulting in a final DMSO concentration of 1%. Additionally, DMSO blanks and a full dose response curve of the relevant reference compound were included on each plate. All samples were tested in triplicate. The preparation of the compound dilution series as well as the exposure of the cells were performed on a Hamilton StarLET liquid handling robot coupled to a Cytomat incubator.
Directly after exposure, plates were sealed with non-breathing plate seals (Plate sealer, easy seal transparent; Greiner-Bio-One, 676001). After 24 h the exposure medium was removed using an EL406 washer-dispenser (BioTek) and 10 µl/well triton lysisbuffer was added by the EL406.
(§5) Subsequently, the luciferase signal was measured in a luminometer (InfinitePro coupled to a Connect Stacker, both TECAN). In order to be able to detect receptor antagonism, several assays were also performed in antagonistic mode. The assay procedure was as described above, with the only exception that the EC50 concentration of the reference agonist was present during the exposure.
The luminometer data was analysed as follows; the average of the triplicate wells was determined, and the average blank (DMSO) value was subtracted. For receptor-based assays the maximum response elicited by the reference compound was set to 100% (full receptor- or pathway activation), and the other values were scaled accordingly. GraphPad Prism was used to fit a sigmoidal curve through the data (four parameters, variable slope). […] For antagonist- and cytotoxicity experiments, PC20 values were determined instead, which was defined as the concentration where the test compound causes a 20% decrease in the basal signal, which was […]
curve, the signal induction above background (DMSO) was determined, and the concentration where the compound elicited a 1.5-fold increase above background was used as LEC.

[2] = target: T2, GR (Homo sapiens, UniProt P04150); assay: GR-anti CALUX reporter gene assay (antagonistic mode); type: cell-based; parameters: key: –: no effect observed up to the highest test concentration; settings: PC20, 24 h exposure
T2 construct: expression construct for the full-length human receptor under investigation; expressed in transfected cells; host or cells: human U2-OS cells (ATCC HTB-96), stably transfected
T2 sequence (P04150 1-777): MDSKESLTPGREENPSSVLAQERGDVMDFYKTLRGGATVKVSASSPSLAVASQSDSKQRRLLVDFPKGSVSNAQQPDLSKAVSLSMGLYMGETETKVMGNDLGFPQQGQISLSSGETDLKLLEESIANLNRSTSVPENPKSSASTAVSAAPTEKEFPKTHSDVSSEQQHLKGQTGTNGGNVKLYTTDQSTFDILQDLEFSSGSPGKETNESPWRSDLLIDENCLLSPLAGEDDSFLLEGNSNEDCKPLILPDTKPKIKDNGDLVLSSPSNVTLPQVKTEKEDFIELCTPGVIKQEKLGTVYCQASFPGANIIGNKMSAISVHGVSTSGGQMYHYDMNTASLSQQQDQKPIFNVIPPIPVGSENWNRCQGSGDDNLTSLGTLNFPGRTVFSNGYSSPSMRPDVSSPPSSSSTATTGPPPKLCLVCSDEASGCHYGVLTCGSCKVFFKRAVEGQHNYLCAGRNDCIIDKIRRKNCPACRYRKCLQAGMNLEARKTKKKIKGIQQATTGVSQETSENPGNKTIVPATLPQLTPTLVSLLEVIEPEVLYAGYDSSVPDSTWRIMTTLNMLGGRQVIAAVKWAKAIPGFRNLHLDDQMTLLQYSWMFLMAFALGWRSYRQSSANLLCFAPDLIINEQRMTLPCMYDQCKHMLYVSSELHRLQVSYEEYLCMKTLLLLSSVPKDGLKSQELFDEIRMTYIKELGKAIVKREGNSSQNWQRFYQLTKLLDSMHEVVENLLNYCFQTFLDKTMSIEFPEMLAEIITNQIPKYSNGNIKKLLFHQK
Source text: nitroaniline ≥98.0% was purchased from Alfa Aeser. Cyrene was supplied by Circa group. N-butylpyrrolidinone was supplied by Eastman chemicals. […]
as §1, §2, §3
as §4, with “with” for “supplement (Fisher Scientific, 11574466), 10 U/mL penicillin and 10 µg/mL streptomycin. A cell suspension in assay medium was made of 1 × 10^5cells/mL, and white 384-wells plates were seeded with”
Directly after exposure, plates were sealed with non-breathing plate seals (Plate sealer, easy seal […]
After 24 h the exposure medium was removed using an EL406 washer-dispenser (BioTek) and 10 µl/well triton lysisbuffer was added by the EL406.
as §5
The luminometer data was analysed as follows; the average of the triplicate wells was determined, […]

Structure (SMILES) | LEC PXR [1] | LEC GR‐anti [2]
CCCCN(CC)C(=O)CCC(=O)N(CC)CCCC [EBSA, N,N′‐diethyl‐N,N′‐dibutylsuccindiamide] | −5.0 Log M | –
CCCCN(C)C(=O)CCC(=O)N(C)CCCC [MBSA, N,N′‐dimethyl‐N,N′‐dibutylsuccindiamide] | −3.9 Log M | –

The next lines start with the values.

LEC PXR [1] | LEC GR‐anti [2] | Structure (SMILES)
−3.2 Log M | – | CCCCN1CCCC1=O [NBP, N‐Butylpyrrolidinone, reference compound]
−6.1 Log M | – | CCCCN(CCCC)C(=O)CCC(=O)N(CCCC)CCCC [TBSA, N,N,N′,N′‐tetrabutylsuccindiamide]
– |  | CN1CCCC1=O [NMP, N‐methyl‐2‐pyrrolidone, reference compound]
